{
  "source": "ChEMBL document CHEMBL1124908",
  "about": "“Synthesis and antiviral activity of 3'-deoxy-3'-C-hydroxymethyl nucleosides” (J Med Chem, 1990)",
  "key": {"[1]": {"tested_on": "CV-1", "test": "Inhibitory concentration which is active against Varicella zoster virus (VZV) in CV-1 cells", "type": "functional, cell-based, Cercopithecidae", "settings": "Chlorocebus aethiops"}, "[2]": {"tested_on": "MRC5", "test": "Inhibitory concentration which is active against Varicella zoster virus (VZV) in MRC-5 cells", "type": "functional, cell-based", "settings": "Homo sapiens"}, "[3]": {"tested_on": "Human alphaherpesvirus 1", "test": "Minimum inhibitory concentration which is active against herpes simplex virus type-1 (HSV-1); value ranges from 0.007-0.01 ug/mL", "type": "functional"}, "[4]": {"tested_on": "Human alphaherpesvirus 3", "test": "Anti-viral activity which is required for the inhibition of VZV (Varicella zoster virus )", "type": "functional, organism-based"}, "[5]": {"tested_on": "Human alphaherpesvirus 3", "test": "Minimum inhibitory concentration which is active against Varicella zoster virus (VZV); value ranges from 0.0002-0.003 ug/mL", "type": "functional"}},
  "data": [
    {"smiles": "O=c1[nH]c(=O)n(C2O[C@H](CO)[C@H](CO)[C@H]2O)cc1/C=C/Br", "note": "(stereo not given in full)", "values": [
      {"measurement": "IC50", "setting": "[1]", "result": 4.4, "unit": "µg/mL"},
      {"measurement": "IC50", "setting": "[2]", "result": 15.3, "unit": "µg/mL"}
    ]},
    {"smiles": "O=c1[nH]c(=O)n([C@H]2C[C@H](O)[C@@H](CO)O2)cc1/C=C/Br", "note": "[BRIVUDINE]", "values": [
      {"measurement": "MIC", "setting": "[3]", "result": 7, "unit": "ng/mL"},
      {"measurement": "IC50", "setting": "[4]", "result": 2.4, "unit": "ng/mL"},
      {"measurement": "MIC", "setting": "[5]", "result": 0.2, "unit": "ng/mL"}
    ]}
  ]
}
